The source of these data is US20150274777A1, “KETOAMIDE IMMUNOPROTEASOME INHIBITORS” (HOFFMANN-LA ROCHE INC., priority 2012, published 2015).

The target of one assay is T1, β5i (Homo sapiens, UniProt P20618+P28062).
T1 construct: protease activity associated with the proteasome complex in cultured cells; endogenous in cells; host or cells: Ramos cells
The assay can be described thus: Cell-Based Proteasome Activity/Selectivity Assay (Ramos cells), substrate (ANW)2Rh110. Particulars: highest concentration tested 20 μM, read-out: Ic50 ramos:ac-(anw)2-r110. In short, it runs like this: (§1)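 Ramos cells (5×10^4/well in DPBS) were treated with 4-fold compound dilutions (top 20 μM) for 30 min at 37 °C. A 2× mix of 0.025% digitonin, 20 μM of each Rh110 substrate and 0.5 M sucrose was added, then incubated 120 min at room temperature. Rh110 fluorescence was read at 500/519 nm.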

In the next assay the target is T2, β5c (Homo sapiens, UniProt P20618+P28074).
T2 construct: protease activity associated with the proteasome complex in cultured cells; endogenous in cells; host or cells: Ramos cells
The assay can be described thus: Cell-Based Proteasome Activity/Selectivity Assay (Ramos cells), substrate (WLA)2Rh110. The note with it: highest concentration tested 20 μM. The procedure, abridged: as §1

For the next assay, the system named is β2c/2i. Nature of the assay: Cell-Based Proteasome Activity/Selectivity Assay (Ramos cells), substrate (KQL)2Rh110. Particulars: highest concentration tested 20 μM. The procedure, abridged: as §1
The next assay has as its target T3, β1i (Homo sapiens, UniProt P28065+P40306).
T3 construct: protease activity associated with the proteasome complex in cultured cells; endogenous in cells; host or cells: Ramos cells
The assay can be described thus: Cell-Based Proteasome Activity/Selectivity Assay (Ramos cells), substrate (PAL)2Rh110. Particulars: highest concentration tested 20 μM. In short, it runs like this: as §1

The next assay concerns the target T4, β1c (Homo sapiens, UniProt P28072+Q99436).
T4 construct: protease activity associated with the proteasome complex in cultured cells; endogenous in cells; host or cells: Ramos cells
Nature of the assay: Cell-Based Proteasome Activity/Selectivity Assay (Ramos cells), substrate (LLE)2 Rh110. The note with it: highest concentration tested 20 μM. The procedure, abridged:
as §1

For assay [1], the system named is IP10 level in PBMCs stimulated with CpG Type A. The assay can be described thus: PBMC IP-10 Assay. The assay is classed as cell-based. The note with it: CpG Type A 2.5 μM. In short, it runs like this: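 Human PBMCs (~2×10^5/well) preincubated 60 min at 37° C. with titrated compound (1% DMSO final), then stimulated with CpG Type A (ODN 2216) at 2.5 μM final overnight. Supernatant IP-10 quantified by AlphaLISA; viability of remaining cells by ATP luminescence.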

pEC50, pIC50: −log10 of the molar value.

Turning to `C[C@H](NC(=O)c1cc2ccccc2n1C)C(=O)N[C@@H](Cc1ccccc1)C(=O)N[C@@H](Cc1ccccc1)C(=O)C(=O)NCc1ccccc1` [Example 44, 1-Methyl-1H-indole-2-carboxylic acid {(S)-1-[(S)-1-((S)-1-benzyl-2-benzylcarbamoyl-2-oxo-ethylcarbamoyl)-2-phenyl-ethylcarbamoyl]-ethyl}-amide], the pIC50 is 7.89 at β5i; 5.91 on β5c; < 4.70 with β2c/2i; 4.88 against β1i; < 4.70 on β1c. For the same compound, the pEC50 in assay [1] was 6.22.

In the case of `COc1ccc(C[C@H](NC(=O)[C@H](C)NC(=O)c2cc3ncccc3n2C)C(=O)N[C@@H](Cc2ccccc2)C(=O)C(=O)NCc2ccccc2)cc1` [Example 45], the negative-log IC50 (pIC50) is 7.89 on β5i; 6.60 against β5c; < 4.70 in the assay on β2c/2i; 6.30 at β1i; 5.20 at β1c. Besides, in assay [1], the pEC50 was 5.88.

As to `COc1ccc(C[C@H](NC(=O)[C@H](C)NC(=O)CN2CCOCC2)C(=O)N[C@@H](Cc2ccccc2)C(=O)C(=O)NCc2ccccc2)cc1` [Example 46, (S)—N-Benzyl-3-{(S)-3-(4-methoxy-phenyl)-2-[(S)-2-(2-morpholin-4-yl-acetylamino)-propionylamino]-propionylamino}-2-oxo-4-phenyl-butyramide], the negative-log IC50 (pIC50) at β5i is 6.92; on β5c, 5.36; with β2c/2i it was < 4.70; on β1i, 5.66; on β1c it was < 4.70. In assay [1], this compound gave a negative-log EC50 (pEC50) of 5.24.

Turning to `Cc1cc(C(=O)N[C@@H](C)C(=O)N[C@@H](Cc2c[nH]c3ccccc23)C(=O)N[C@@H](Cc2ccccc2)C(=O)C(=O)NCc2ccccc2)no1` [Example 47, 5-Methyl-isoxazole-3-carboxylic acid {(S)-1-[(S)-1-((S)-1-benzyl-2-benzylcarbamoyl-2-oxo-ethylcarbamoyl)-2-(1H-indol-3-yl)-ethylcarbamoyl]-ethyl}-amide], the negative-log IC50 (pIC50) is 7.47 at β5i; 5.86 against β5c; < 4.70 in the assay on β2c/2i; 6.15 against β1i; 5.20 at β1c. In assay [1], this compound gave a pEC50 of 5.64.

For `CC1=C(C(=O)N[C@@H](C)C(=O)N[C@@H](Cc2c[nH]c3ccccc23)C(=O)N[C@@H](Cc2ccccc2)C(=O)C(=O)NCc2ccccc2)Cc2ccccc21` [Example 48, 3-Methyl-1H-indene-2-carboxylic acid {(S)-1-[(S)-1-((S)-1-benzyl-2-benzylcarbamoyl-2-oxo-ethylcarbamoyl)-2-(1H-indol-3-yl)-ethylcarbamoyl]-ethyl}-amide], the negative logarithm of the IC50 (pIC50) on β5i is 8.10; on β5c, 5.99; with β2c/2i, < 4.70; against β1i, 5.93; at β1c, 4.87. This compound showed a negative logarithm of the EC50 (pEC50) in assay [1] of 6.21.

Take `COc1ccc(C[C@H](NC(=O)[C@H](C)NC(=O)c2cn3ccccc3n2)C(=O)N[C@@H](Cc2ccccc2)C(=O)C(=O)NCc2ccccc2)cc1` [Example 49, Imidazo[1,2-a]pyridine-2-carboxylic acid {(S)-1-[(S)-1-((S)-1-benzyl-2-benzylcarbamoyl-2-oxo-ethylcarbamoyl)-2-(4-methoxy-phenyl)-ethylcarbamoyl]-ethyl}-amide]: the pIC50 was 6.98 at β5i; 5.72 against β5c; < 4.70 with β2c/2i; 6.30 on β1i; 4.76 against β1c. Further, the pEC50 in assay [1] was 5.36.

Regarding `C[C@H](NC(=O)OCc1ccccc1)C(=O)N[C@@H](Cc1ccccn1)C(=O)N[C@@H](Cc1ccccc1)C(=O)C(=O)NCc1ccccc1` [Example 50, {(S)-1-[(S)-1-((S)-1-Benzyl-2-benzylcarbamoyl-2-oxo-ethylcarbamoyl)-2-pyridin-2-yl-ethylcarbamoyl]-ethyl}-carbamic acid benzyl ester], the negative logarithm of the IC50 (pIC50) was 6.58 at β5i; 5.54 on β5c; < 4.70 in the assay with β2c/2i; 5.89 on β1i; < 4.70 at β1c. The pEC50 in assay [1] was 5.56.

Regarding `C[C@H](NC(=O)OCc1ccccc1)C(=O)N[C@@H](Cc1ccc(Cl)cc1)C(=O)N[C@@H](Cc1ccccc1)C(=O)C(=O)NCc1ccccc1` [Example 51, {(S)-1-[(S)-1-((S)-1-Benzyl-2-benzylcarbamoyl-2-oxo-ethylcarbamoyl)-2-(4-chloro-phenyl)-ethylcarbamoyl]-ethyl}-carbamic acid benzyl ester], the pIC50 at β5i was 7.68; at β5c it was 5.29; in the assay on β2c/2i, < 4.70; against β1i, 5.01; at β1c, < 4.70. In assay [1], this compound had a negative-log EC50 (pEC50) of 5.59.

As for `C[C@H](NC(=O)N1Cc2ccccc2C1)C(=O)N[C@@H](Cc1ccccc1)C(=O)N[C@@H](Cc1ccccc1)C(=O)C(=O)NCc1ccccc1` [Example 52, 1,3-Dihydro-isoindole-2-carboxylic acid {(S)-1-[(S)-1-((S)-1-benzyl-2-benzylcarbamoyl-2-oxo-ethylcarbamoyl)-2-phenyl-ethylcarbamoyl]-ethyl}-amide], the pIC50 on β5i is 6.66; on β5c, 5.63; with β2c/2i it was < 4.70; against β1i it was 5.82; at β1c, 4.99. In assay [1], this compound gave a negative logarithm of the EC50 (pEC50) of 5.35.

`Cc1cc(C(=O)N[C@@H](C)C(=O)N[C@@H](Cc2ccccc2)C(=O)N[C@@H](Cc2ccccc2)C(=O)C(=O)NCc2ccccc2)n(C)n1` [Example 53, 2,5-Dimethyl-2H-pyrazole-3-carboxylic acid {(S)-1-[(S)-1-((S)-1-benzyl-2-benzylcarbamoyl-2-oxo-ethylcarbamoyl)-2-phenyl-ethylcarbamoyl]-ethyl}-amide]: the negative-log IC50 (pIC50) on β5i was 6.66; against β5c it was 5.86; in the assay on β2c/2i, < 4.70; against β1i it was 5.75; against β1c it was < 4.70. This compound had a negative logarithm of the EC50 (pEC50) in assay [1] of 5.31.

On to `CCn1nccc1C(=O)N[C@@H](C)C(=O)N[C@@H](Cc1ccccc1)C(=O)N[C@@H](Cc1ccccc1)C(=O)C(=O)NCc1ccccc1` [Example 54, 2-Ethyl-2H-pyrazole-3-carboxylic acid {(S)-1-[(S)-1-((S)-1-benzyl-2-benzylcarbamoyl-2-oxo-ethylcarbamoyl)-2-phenyl-ethylcarbamoyl]-ethyl}-amide], for which the pIC50 at β5i is 7.18; on β5c it was 5.77; with β2c/2i, < 4.70; against β1i it was 6.22; on β1c it was 4.73. Further, the pEC50 in assay [1] is 5.46.

`C[C@H](NC(=O)c1cc(C(F)(F)F)nn1C)C(=O)N[C@@H](Cc1ccccc1)C(=O)N[C@@H](Cc1ccccc1)C(=O)C(=O)NCc1ccccc1` [Example 55, 2-Methyl-5-trifluoromethyl-2H-pyrazole-3-carboxylic acid {(S)-1-[(S)-1-((S)-1-benzyl-2-benzylcarbamoyl-2-oxo-ethylcarbamoyl)-2-phenyl-ethylcarbamoyl]-ethyl}-amide]: the negative-log IC50 (pIC50) was 6.75 on β5i; 5.24 against β5c; < 4.70 in the assay on β2c/2i; 5.05 against β1i; < 4.70 against β1c. The pEC50 in assay [1] is 5.41.

As for `C[C@H](NC(=O)OCc1ccccc1)C(=O)NC(CC1CCOCC1)C(=O)N[C@@H](Cc1ccccc1)C(=O)C(=O)NCc1ccccc1` (stereo partly drawn) [Example 56, {(S)-1-[1-((S)-1-Benzyl-2-benzylcarbamoyl-2-oxo-ethylcarbamoyl)-2-(tetrahydro-pyran-4-yl)-ethylcarbamoyl]-ethyl}-carbamic acid benzyl ester], the pIC50 on β5i is 6.94; against β5c, 5.51; with β2c/2i, < 4.70; on β1i, 6.06; on β1c, < 4.70. Besides, in assay [1], the pEC50 is 5.49.

Turning to `C[C@H](NC(=O)OCc1ccccc1)C(=O)NC(CC(F)(F)F)C(=O)N[C@@H](Cc1ccccc1)C(=O)C(=O)NCc1ccccc1` (stereo partly drawn) [Example 57, {(S)-1-[1-((S)-1-Benzyl-2-benzylcarbamoyl-2-oxo-ethylcarbamoyl)-3,3,3-trifluoro-propylcarbamoyl]-ethyl}-carbamic acid benzyl ester], the pIC50 was 6.28 on β5i; 5.21 at β5c; < 4.70 in the assay on β2c/2i; 5.56 on β1i; < 4.70 against β1c. This compound also showed a pEC50 in assay [1] of 5.30.

On to `C[C@H](NC(=O)OCc1ccccc1)C(=O)N[C@@H](Cc1ccncc1)C(=O)N[C@@H](Cc1ccccc1)C(=O)C(=O)NCc1ccccc1` [Example 58, {(S)-1-[(S)-1-((S)-1-Benzyl-2-benzylcarbamoyl-2-oxo-ethylcarbamoyl)-2-pyridin-4-yl-ethylcarbamoyl]-ethyl}-carbamic acid benzyl ester], for which the pIC50 at β5i is 7.52; against β5c, 6.02; in the assay with β2c/2i, < 4.70; on β1i, 6.32; against β1c, < 4.70. Besides, in assay [1], the negative logarithm of the EC50 (pEC50) was 5.88.

Usually pIC50 stands for the negative decadic logarithm of the IC50, by convention in mol/L. Usually pEC50 stands for −log10 of the EC50, conventionally taken in molar units. High values mean a low EC50, low ones a high EC50.
